Assay results: ChEMBL document CHEMBL4706747, “Discovery of 5-Nitro-6-thiocyanatopyrimidines as Inhibitors of Cryptococcus neoformans and Cryptococcus gattii” (ACS Med Chem Lett, 2021)
Several values for one entry are separate records, joined by “and”; a condition that tells them apart may be missing. Identical values can stand only once.

Experiments:
Cryptococcus neoformans [1] = assay: Antifungal activity against Cryptococcus neoformans KN99alpha assessed as fungal growth inhibition after 48 hrs by limiting dilution method; format: functional
[2] = Antifungal activity against Cryptococcus gattii RSA-3615 assessed as fungal growth inhibition after 48 hrs by limiting dilution method; format: functional, Cryptococcus gattii VGI
Cryptococcus neoformans [3] = assay: Antifungal activity against fluconazole-resistant Cryptococcus neoformans DUMC-158.03 assessed as fungal growth inhibition after 48 hrs by limiting dilution method; format: functional
[4] = Cytotoxicity against human HepDE19 cells incubated for 72 hrs by MTS assay; format: cell-based

Row | Compound | MIC80 (Cryptococcus neoformans [1]) | MIC80 [2] | MIC80 (Cryptococcus neoformans [3]) | CC50 at 72 h [4]
1 | CC(C)C(C)Nc1ncnc(SC#N)c1[N+](=O)[O-] (stereo not drawn) | 3 µM and 0.8 µg/mL | – | – | –
2 | N#CSc1ncnc(NCc2ccccc2)c1[N+](=O)[O-] | 2.34 µM and 0.66 µg/mL | 1.17 µM and 0.33 µg/mL | 1.17 µM and 0.33 µg/mL | 19.6 µM and 5.63 µg/mL
3 | N#CSc1ncnc(N2CCCCC2)c1[N+](=O)[O-] | 2.34 µM and 0.61 µg/mL | 1.17 µM and 0.3 µg/mL | 4.68 µM and 1.24 µg/mL | 11.9 µM and 3.16 µg/mL
4 | CC(C)Nc1nc(-c2ccccc2)nc(SC#N)c1[N+](=O)[O-] | 50 µM and 15.8 µg/mL | – | – | –
5 | CSc1nc(NCCc2ccccc2)c([N+](=O)[O-])c(SC#N)n1 | 9.37 µM and 3.25 µg/mL | 1.17 µM and 0.4 µg/mL | – | 15.4 µM and 5.35 µg/mL
6 | Cc1nc(NC2CCCC2)c([N+](=O)[O-])c(SC#N)n1 | 9 µM and 2.51 µg/mL | 2.34 µM and 0.65 µg/mL | – | –
7 | Cc1nc(NCCc2ccccc2)c([N+](=O)[O-])c(SC#N)n1 | 50 µM and 15.8 µg/mL | 2.34 µM and 0.73 µg/mL | – | 12.3 µM and 3.87 µg/mL
8 | COc1ncnc(SC#N)c1[N+](=O)[O-] | 9.37 µM and 1.98 µg/mL | > 25 µM and > 5.3 µg/mL | – | –
9 | CC(C)Nc1ncnc(SC#N)c1[N+](=O)[O-] | 2.34 µM and 0.55 µg/mL | 0.58 µM and 0.13 µg/mL | 2.34 µM and 0.55 µg/mL | 12 µM and 2.87 µg/mL
10 | CNc1nc(/C=C/c2ccccc2)nc(SC#N)c1[N+](=O)[O-] | > 50 µM and > 15.7 µg/mL | > 25 µM and > 7.83 µg/mL | – | –
11 | N#CSc1ncnc(N2CCCCCCC2)c1[N+](=O)[O-] | 4.68 µM and 1.37 µg/mL | 2.34 µM and 0.68 µg/mL | – | –
12 | Cc1nc(NC2CCCCC2)c([N+](=O)[O-])c(SC#N)n1 | > 50 µM and > 24.6 µg/mL | > 25 µM and > 12.3 µg/mL | – | –
13 | Cc1nc(SC#N)c([N+](=O)[O-])c(N2CCCCCC2)n1 | 18.8 µM and 5.49 µg/mL | 4.68 µM and 1.37 µg/mL | – | –
14 | Cc1nc(SC#N)c([N+](=O)[O-])c(N2CCCC2)n1 | 4.68 µM and 1.23 µg/mL | 1.17 µM and 0.3 µg/mL | – | –
15 | CC1CCCC(C)N1c1ncnc(SC#N)c1[N+](=O)[O-] (stereo not drawn) | 9.37 µM and 2.74 µg/mL | 15.6 µM and 4.58 µg/mL | – | –
16 | Cc1nc(OC(C)C)c([N+](=O)[O-])c(SC#N)n1 | 1 µM and 0.25 µg/mL | 1.17 µM and 0.29 µg/mL | 1.17 µM and 0.29 µg/mL | 14.6 µM and 3.71 µg/mL
17 | N#CSc1ncnc(N)c1[N+](=O)[O-] | 4.68 µM and 0.92 µg/mL | 1.17 µM and 0.22 µg/mL | – | –
18 | Cc1nc(SC#N)c([N+](=O)[O-])c(N2CCCCCCC2)n1 | 18.8 µM and 5.76 µg/mL | 2.34 µM and 0.71 µg/mL | – | –
19 | CN(C)c1ncnc(SC#N)c1[N+](=O)[O-] | 4.68 µM and 1.05 µg/mL | 1.17 µM and 0.26 µg/mL | – | –
20 | CCN(c1ncnc(SC#N)c1[N+](=O)[O-])C(C)C | 4.55 µM and 1.4 µg/mL | 1.17 µM and 0.3 µg/mL | – | 10.7 µM and 2.86 µg/mL
21 | Cc1nc(SC#N)c([N+](=O)[O-])c(N2CCCCC2C)n1 (stereo not drawn) | 18.8 µM and 5.49 µg/mL | 0.58 µM and 0.16 µg/mL | – | –
22 | CSc1nc(NCc2ccc(C)cc2)c([N+](=O)[O-])c(SC#N)n1 | 9.37 µM and 3.25 µg/mL | 4.68 µM and 1.62 µg/mL | – | 19.2 µM and 6.67 µg/mL
23 | Cc1nc(NCc2ccccc2)c([N+](=O)[O-])c(SC#N)n1 | 50 µM and 15.1 µg/mL | 18.8 µM and 5.64 µg/mL | – | 15.9 µM and 4.78 µg/mL
24 | CN(Cc1ccccc1)c1ncnc(SC#N)c1[N+](=O)[O-] | 2.34 µM and 0.7 µg/mL | 1.17 µM and 0.35 µg/mL | – | 18.8 µM and 5.66 µg/mL

Row | Compound | MIC80 (Cryptococcus neoformans [1]) | MIC80 [2] | MIC80 (Cryptococcus neoformans [3]) | CC50 at 72 h [4]
25 | CC(C)Oc1ncnc(SC#N)c1[N+](=O)[O-] | 1.9 µM and 0.45 µg/mL | 1.17 µM and 0.27 µg/mL | – | 23.3 µM and 5.6 µg/mL
26 | CCCOc1ncnc(SC#N)c1[N+](=O)[O-] | 3.9 µM and 0.93 µg/mL | 4.68 µM and 1.12 µg/mL | – | 31.8 µM and 7.64 µg/mL
27 | N#CSc1ncnc(N2CCCCCC2)c1[N+](=O)[O-] | 2.34 µM and 0.65 µg/mL | 2.34 µM and 0.65 µg/mL | 2.34 µM and 0.65 µg/mL | 17.7 µM and 4.94 µg/mL
28 | N#CSc1ncnc(NCCc2ccccc2)c1[N+](=O)[O-] | 3.51 µM and 1.05 µg/mL | 2.34 µM and 0.7 µg/mL | – | 15.1 µM and 4.55 µg/mL
29 | CC1CCCCN1c1ncnc(SC#N)c1[N+](=O)[O-] (stereo not drawn) | 9.37 µM and 2.61 µg/mL | 1.17 µM and 0.32 µg/mL | – | –
30 | CC1CC(C)CN(c2ncnc(SC#N)c2[N+](=O)[O-])C1 (stereo not drawn) | 2.34 µM and 0.68 µg/mL | 9.37 µM and 2.74 µg/mL | – | 33.6 µM and 9.86 µg/mL
31 | CSc1nc(NCc2ccccc2)c([N+](=O)[O-])c(SC#N)n1 | 4.68 µM and 1.56 µg/mL | 4.68 µM and 1.56 µg/mL | – | 18.6 µM and 6.2 µg/mL
32 | Cc1nc(SC#N)c([N+](=O)[O-])c(N2CC(C)CC(C)C2)n1 (stereo not drawn) | 18.8 µM and 5.76 µg/mL | 9.37 µM and 2.88 µg/mL | – | –
33 | CCOc1nc(C)nc(SC#N)c1[N+](=O)[O-] | 1.17 µM and 0.27 µg/mL | 0.29 µM and 0.06 µg/mL | 2.34 µM and 0.56 µg/mL | 19.8 µM and 4.76 µg/mL
34 | N#CSc1ncnc(NCc2cccc(C(F)(F)F)c2)c1[N+](=O)[O-] | 9.37 µM and 3.32 µg/mL | 4.68 µM and 1.66 µg/mL | – | 25.9 µM and 9.21 µg/mL
35 | CN(c1ncnc(SC#N)c1[N+](=O)[O-])C1CCCCC1 | 6 µM and 1.76 µg/mL | 4.68 µM and 1.37 µg/mL | – | 25.3 µM and 7.42 µg/mL
36 | CNc1nc(C)nc(SC#N)c1[N+](=O)[O-] | 2.34 µM and 0.52 µg/mL | 1.17 µM and 0.26 µg/mL | 2.34 µM and 0.52 µg/mL | > 100 µM and > 22.5 µg/mL
37 | N#CSc1ncnc(NC2CCCC2)c1[N+](=O)[O-] | 4.9 µM and 1.29 µg/mL | 1.17 µM and 0.3 µg/mL | 2.34 µM and 0.62 µg/mL | –
38 | N#CSc1ncnc(NC2CCCCC2)c1[N+](=O)[O-] | 6 µM and 1.67 µg/mL | 1.17 µM and 0.32 µg/mL | – | –
39 | Cc1nc(N)c([N+](=O)[O-])c(SC#N)n1 | 2.34 µM and 0.48 µg/mL | 0.58 µM and 0.12 µg/mL | 2.34 µM and 0.49 µg/mL | 24.5 µM and 5.17 µg/mL
40 | CC(C)N(Cc1ccccc1)c1ncnc(SC#N)c1[N+](=O)[O-] | > 50 µM and > 16.5 µg/mL | > 25 µM and > 8.23 µg/mL | – | –
41 | CCN(CC)c1nc(C)nc(SC#N)c1[N+](=O)[O-] | 9.37 µM and 2.5 µg/mL | 2.34 µM and 0.62 µg/mL | – | –
42 | Cc1nc(SC#N)c([N+](=O)[O-])c(N(C)C)n1 | 4.68 µM and 1.11 µg/mL | 2.34 µM and 0.55 µg/mL | – | –
43 | CCC(CC)Nc1ncnc(SC#N)c1[N+](=O)[O-] | 18.5 µM and 4.94 µg/mL | > 25 µM and > 6.68 µg/mL | – | –
44 | CCN(CC)c1ncnc(SC#N)c1[N+](=O)[O-] | 9.37 µM and 2.37 µg/mL | 0.14 µM and 0.03 µg/mL | – | –
45 | CCCOc1nc(C)nc(SC#N)c1[N+](=O)[O-] | 0.6 µM and 0.15 µg/mL | 1.17 µM and 0.29 µg/mL | 1.17 µM and 0.29 µg/mL | 15.8 µM and 4.02 µg/mL
46 | CCC(CC)Nc1nc(C)nc(SC#N)c1[N+](=O)[O-] | 9 µM and 2.53 µg/mL | 9.37 µM and 2.63 µg/mL | – | –
47 | N#CSc1ncnc(NCc2ccc(Cl)cc2)c1[N+](=O)[O-] | 5.85 µM and 1.88 µg/mL | 1.17 µM and 0.37 µg/mL | – | 22.5 µM and 7.25 µg/mL
48 | Cc1ccc(CNc2nc(C)nc(SC#N)c2[N+](=O)[O-])cc1 | 50 µM and 15.8 µg/mL | 1.17 µM and 0.36 µg/mL | – | 14.7 µM and 4.65 µg/mL
